Source: patent publication US7629310B2, “RhoB as a suppressor of cancer cell growth, cell transformation, and metastasis” (University of South Florida, priority 2000, dated 2009)

Legend:
RhoB promoter [1] = test: RhoB promoter transcriptional activity (luciferase reporter) in NIH3T3 cells; assay type: cell-based
Text: Gene Constructs and RhoB Promoter Transcriptional Activity Assay. Constitutively active H-Ras61L, K-RasV12, N-RasV12, and dominant negative […]-Ras were kind gifts from Dr. Channing Der (University of North Carolina) (Khosravi-Far, R. et al., Mol Cell Biol, 1995, 15:6443-53; Quilliam, L. A. et al., Mol Cell Biol, 1994, 14:1113-21). Wild-type RhoA and RhoB were subcloned into hemaglutinin (HA)-tagged pcDNA3 (INVITROGEN). The orientation and the sequences of these genes were confirmed by DNA sequencing facilities at the H. Lee Moffitt Cancer Center, Tampa, Fla. RhoB promoter construct pGEI was kindly provided by Dr Y. Monden (Banyu Tsukuba Research, Japan) (Nakamura et al., 1996). pCMV-β-galactosidase vector was purchased from INVITROGEN. The plasmid containing CA-, DN-PI3K, Mek and Akt were kindly provided by Dr. Julie Y. Djeu (H. Lee Moffitt Cancer and Research Institute, Tampa, Fla.) (Jiang, K. et al., Blood, 2003, 101:236-44). β-galactosidase activity and luciferase assay kits were purchased from PROMEGA Corporation, Madison, Wis. The serum response element (SRE) reporter was provided by Dr. Richard Jove, H. Lee Moffitt Cancer and Research Institute, Tampa, Fla. (Turkson, J. et al., Mol Cell Biol, 1999, 19:7519-28). […] Richard Jove, Oncology program, H. Lee Moffitt Cancer and Research Institute, Tampa, Fla. (Turkson, J. et al., Mol Cell Biol, 1999, 19:7519-28). […] (Luetteke, N. C. et al., Genes Dev, 1994, 8:399-413). DNA transfection was performed with the standard lipofectamine protocol (INVITROGEN). […] After transfection the cells were grown for another 36-48 h. Cells were then washed twice with PBS and lyzed in Promega Passive Lysis Buffer. Aliquots of the lysates were then used to measure the luciferase and β-galactosidase activities. The luciferase values were first divided by β-galactosidase values. The RhoB promoter transcriptional activity was determined by dividing the luciferase/β-Gal values from oncogene-transfected cells by those from pcDNA3-transfected cells. […] All the samples were performed in triplicate and the averages of 3 independent experiments were reported here.

RhoB promoter [2] = test: RhoB promoter transcriptional activity (luciferase reporter) in human cancer cell lines A-549, Panc-1, C33A; assay type: cell-based; settings: PANC-1 and A-549 cells expressing mutated K-Ras
Text: Gene Constructs and RhoB Promoter Transcriptional Activity Assay. Constitutively active H-Ras61L, K-RasV12, N-RasV12, and dominant negative […]-Ras were kind gifts from Dr. Channing Der (University of North Carolina) (Khosravi-Far, R. et al., Mol Cell Biol, 1995, 15:6443-53; Quilliam, L. A. et al., Mol Cell Biol, 1994, 14:1113-21). Wild-type RhoA and RhoB were subcloned into hemaglutinin (HA)-tagged pcDNA3 (INVITROGEN). The orientation and the sequences of these genes were confirmed by DNA sequencing facilities at the H. Lee Moffitt Cancer Center, Tampa, Fla. RhoB promoter construct pGEI was kindly provided by Dr Y. Monden (Banyu Tsukuba Research, Japan) (Nakamura et al., 1996). pCMV-β-galactosidase vector was purchased from INVITROGEN. The plasmid containing CA-, DN-PI3K, Mek and Akt were kindly provided by Dr. Julie Y. Djeu (H. Lee Moffitt Cancer and Research Institute, Tampa, Fla.) (Jiang, K. et al., Blood, 2003, 101:236-44). β-galactosidase activity and luciferase assay kits were purchased from PROMEGA Corporation, Madison, Wis. The serum response element (SRE) reporter was provided by Dr. Richard Jove, H. Lee Moffitt Cancer and Research Institute, Tampa, Fla. […] Richard Jove, Oncology program, H. Lee Moffitt Cancer and Research Institute, Tampa, Fla. […] Human EGFR, ErbB2 cDNA construct were kindly provided by Dr. Noreen Luetteke, H. Lee Moffitt Cancer and Research Institute, Tampa, Fla. (Luetteke, N. C. et al., Genes Dev, 1994, 8:399-413). DNA transfection was performed with the standard lipofectamine protocol (INVITROGEN). Briefly, cells were plated in 60-mm plates, pGEI plasmid was used at 2 μg per plate, whereas all the other plasmids were used at 0.1-1.0 μg per plate. After transfection the cells were grown for another 36-48 h. Cells were then washed twice with PBS and lyzed in Promega Passive Lysis Buffer. Aliquots of the lysates were then used to measure the luciferase and β-galactosidase activities. The luciferase values were first divided by β-galactosidase values. The RhoB promoter transcriptional activity was determined by dividing the luciferase/β-Gal values from oncogene-transfected cells by those from pcDNA3-transfected cells. […] All the samples were performed in triplicate and the averages of 3 independent experiments were reported here. Proteins that induce malignant transformation and those that suppress tumorigenesis most likely antagonize each other's functions. […] Du, W. et al., Mol Cell Biol, 1999, 19:1831-40; Du, W. and Prendergast, G. C., Cancer Res, 1999, 59:5492-6). An objective of the experiments described herein was to determine whether oncogenes that are prevalent in human cancers suppress RhoB expression, and whether RhoB antagonizes the ability of these oncogenes to induce malignant transformation. To this end, the effects of several oncogenes on RhoB promoter transcriptional activity were first evaluated. NIH3T3 cells and human cancer cell lines derived from lung (A-549), pancreatic (Panc-1) and cervical (C33A) tumors were transiently transfected with pcDNA3 empty vectors or pcDNA3 constructs containing various oncogenes along with full length RhoB promoter firefly luciferase reporter and SRE-renilla luciferase reporter as well as a β-gal reporter for controlling transfection efficiency as described in the Materials and Methods section.

- 5-FU induction of RhoB promoter activity (RhoB promoter [2]): both cell lines are resistant to 5-FU
SMILES: O=c1[nH]cc(F)c(=O)[nH]1 [5-FU, 5-fluorouracil]
- induction of RhoB promoter activity (RhoB promoter [1]; NIH3T3, 5-FU 2.0 μM 12 hours (FIG. 6A)): 2 fold
- induction of RhoB promoter activity (RhoB promoter [1]; NIH3T3, 5-FU 2 μM for 12 hours, absence of oncogenes (FIG. 2A)): more than 4 fold
- induction of RhoB promoter activity (RhoB promoter [1]; NIH3T3, 5-FU 2 μM for 12 hours, in the presence of H-Ras, N-Ras, and K-Ras (FIG. 2A)): only one fold or less than one fold
